Test: xn = mol fraction of the nth substance listed
Settings: Vibrating tube method

O=S=O [sulfur dioxide] + O=C=O
Settings	mass density [kg/m3]
298.1 K, 34441 kPa, Liquid, x2 = 0.9478	1013.3
298.1 K, 35077 kPa, Liquid, x2 = 0.9478	1015.5
298.1 K, 35971 kPa, Liquid, x2 = 0.9478	1018.4
298.1 K, 36493 kPa, Liquid, x2 = 0.9478	1020.2
298.1 K, 37078 kPa, Liquid, x2 = 0.9478	1022
298.11 K, 7503 kPa, Liquid, x2 = 0.9478	829.8
298.11 K, 8006 kPa, Liquid, x2 = 0.9478	838.7
298.11 K, 8501 kPa, Liquid, x2 = 0.9478	846.7
298.11 K, 10505 kPa, Liquid, x2 = 0.9478	872.1
298.11 K, 11004 kPa, Liquid, x2 = 0.9478	877.7
298.11 K, 13010 kPa, Liquid, x2 = 0.9478	897.8
298.11 K, 13500 kPa, Liquid, x2 = 0.9478	902.3
298.11 K, 15011 kPa, Liquid, x2 = 0.9478	915.2
298.11 K, 15500 kPa, Liquid, x2 = 0.9478	919.1
298.11 K, 16016 kPa, Liquid, x2 = 0.9478	923
298.11 K, 16534 kPa, Liquid, x2 = 0.9478	926.8
298.11 K, 17024 kPa, Liquid, x2 = 0.9478	930.2
298.11 K, 17492 kPa, Liquid, x2 = 0.9478	933.3
298.11 K, 17978 kPa, Liquid, x2 = 0.9478	936.5
298.11 K, 18527 kPa, Liquid, x2 = 0.9478	939.8
298.11 K, 19025 kPa, Liquid, x2 = 0.9478	942.9
298.11 K, 19477 kPa, Liquid, x2 = 0.9478	945.6
298.11 K, 20051 kPa, Liquid, x2 = 0.9478	948.9
298.11 K, 20492 kPa, Liquid, x2 = 0.9478	951.5
298.11 K, 21501 kPa, Liquid, x2 = 0.9478	957
298.11 K, 23041 kPa, Liquid, x2 = 0.9478	965.2
298.11 K, 28987 kPa, Liquid, x2 = 0.9478	993.1
298.11 K, 29543 kPa, Liquid, x2 = 0.9478	994.8
298.11 K, 30013 kPa, Liquid, x2 = 0.9478	996.8
298.11 K, 30505 kPa, Liquid, x2 = 0.9478	998.9
298.11 K, 30997 kPa, Liquid, x2 = 0.9478	1000.7
298.11 K, 31516 kPa, Liquid, x2 = 0.9478	1002.6
298.11 K, 33949 kPa, Liquid, x2 = 0.9478	1011.6
298.11 K, 35494 kPa, Liquid, x2 = 0.9478	1016.9
298.11 K, 37574 kPa, Liquid, x2 = 0.9478	1023.6
298.11 K, 37960 kPa, Liquid, x2 = 0.9478	1024.8
298.11 K, 38545 kPa, Liquid, x2 = 0.9478	1026.6
298.11 K, 38913 kPa, Liquid, x2 = 0.9478	1027.8
298.11 K, 39519 kPa, Liquid, x2 = 0.9478	1029.5
298.11 K, 40060 kPa, Liquid, x2 = 0.9478	1031.1
298.12 K, 9508 kPa, Liquid, x2 = 0.9478	860.5
298.12 K, 10039 kPa, Liquid, x2 = 0.9478	866.6
298.12 K, 11504 kPa, Liquid, x2 = 0.9478	882.9
298.12 K, 12000 kPa, Liquid, x2 = 0.9478	887.9
298.12 K, 12503 kPa, Liquid, x2 = 0.9478	892.9
298.12 K, 14006 kPa, Liquid, x2 = 0.9478	906.7
298.12 K, 14500 kPa, Liquid, x2 = 0.9478	910.9
298.12 K, 40411 kPa, Liquid, x2 = 0.9478	1032.1
322.39 K, 392 kPa, Gas, x2 = 0.9503	7
322.39 K, 1252 kPa, Gas, x2 = 0.9503	22.2
322.39 K, 1707 kPa, Gas, x2 = 0.9503	31.7
322.39 K, 2008 kPa, Gas, x2 = 0.9503	37
322.39 K, 3512 kPa, Gas, x2 = 0.9503	70.9
322.39 K, 4009 kPa, Gas, x2 = 0.9503	82.8
322.39 K, 4519 kPa, Gas, x2 = 0.9503	96.9
322.39 K, 5017 kPa, Gas, x2 = 0.9503	111.5
322.39 K, 5528 kPa, Gas, x2 = 0.9503	127.9
322.39 K, 6019 kPa, Gas, x2 = 0.9503	145.7
322.39 K, 7009 kPa, Fluid (supercritical or subcritical phases), x2 = 0.9503	189.5
322.39 K, 7504 kPa, Fluid (supercritical or subcritical phases), x2 = 0.9503	218.4
322.4 K, 749 kPa, Gas, x2 = 0.9503	13.6
322.4 K, 1002 kPa, Gas, x2 = 0.9503	17.9
322.4 K, 1509 kPa, Gas, x2 = 0.9503	27.5
322.4 K, 2511 kPa, Gas, x2 = 0.9503	48.1
322.4 K, 3008 kPa, Gas, x2 = 0.9503	58.8
322.41 K, 6514 kPa, Fluid (supercritical or subcritical phases), x2 = 0.9503	166.3
322.41 K, 8037 kPa, Fluid (supercritical or subcritical phases), x2 = 0.9503	254.6
322.41 K, 8521 kPa, Fluid (supercritical or subcritical phases), x2 = 0.9503	307.2
322.41 K, 9006 kPa, Fluid (supercritical or subcritical phases), x2 = 0.9503	371
322.45 K, 9501 kPa, Fluid (supercritical or subcritical phases), x2 = 0.9503	460.8
322.46 K, 9992 kPa, Fluid (supercritical or subcritical phases), x2 = 0.9503	538
322.46 K, 30511 kPa, Fluid (supercritical or subcritical phases), x2 = 0.9503	905.8
322.46 K, 34988 kPa, Fluid (supercritical or subcritical phases), x2 = 0.9503	930.2
322.46 K, 35500 kPa, Fluid (supercritical or subcritical phases), x2 = 0.9503	933
322.46 K, 36061 kPa, Fluid (supercritical or subcritical phases), x2 = 0.9503	935.4
322.46 K, 36509 kPa, Fluid (supercritical or subcritical phases), x2 = 0.9503	937.7
322.46 K, 37005 kPa, Fluid (supercritical or subcritical phases), x2 = 0.9503	940.1
322.46 K, 37561 kPa, Fluid (supercritical or subcritical phases), x2 = 0.9503	942.4
322.47 K, 10501 kPa, Fluid (supercritical or subcritical phases), x2 = 0.9503	585
322.47 K, 29929 kPa, Fluid (supercritical or subcritical phases), x2 = 0.9503	902.4
322.47 K, 31027 kPa, Fluid (supercritical or subcritical phases), x2 = 0.9503	908.9
322.47 K, 31517 kPa, Fluid (supercritical or subcritical phases), x2 = 0.9503	912
322.47 K, 32536 kPa, Fluid (supercritical or subcritical phases), x2 = 0.9503	917.5
322.47 K, 33070 kPa, Fluid (supercritical or subcritical phases), x2 = 0.9503	920.6
322.47 K, 33539 kPa, Fluid (supercritical or subcritical phases), x2 = 0.9503	923.2
322.47 K, 34062 kPa, Fluid (supercritical or subcritical phases), x2 = 0.9503	925.5
322.47 K, 34511 kPa, Fluid (supercritical or subcritical phases), x2 = 0.9503	928
322.47 K, 38091 kPa, Fluid (supercritical or subcritical phases), x2 = 0.9503	945
322.47 K, 38434 kPa, Fluid (supercritical or subcritical phases), x2 = 0.9503	946.6
322.47 K, 39200 kPa, Fluid (supercritical or subcritical phases), x2 = 0.9503	950
322.47 K, 40947 kPa, Fluid (supercritical or subcritical phases), x2 = 0.9503	956.3
322.48 K, 20496 kPa, Fluid (supercritical or subcritical phases), x2 = 0.9503	829.2
322.48 K, 23049 kPa, Fluid (supercritical or subcritical phases), x2 = 0.9503	853.3
322.48 K, 25500 kPa, Fluid (supercritical or subcritical phases), x2 = 0.9503	871.4
322.48 K, 27026 kPa, Fluid (supercritical or subcritical phases), x2 = 0.9503	882.9
322.48 K, 28501 kPa, Fluid (supercritical or subcritical phases), x2 = 0.9503	892.7
322.48 K, 32039 kPa, Fluid (supercritical or subcritical phases), x2 = 0.9503	914.6
322.48 K, 39641 kPa, Fluid (supercritical or subcritical phases), x2 = 0.9503	951.7
322.48 K, 40153 kPa, Fluid (supercritical or subcritical phases), x2 = 0.9503	953.9
322.48 K, 40902 kPa, Fluid (supercritical or subcritical phases), x2 = 0.9503	956.7
322.49 K, 11003 kPa, Fluid (supercritical or subcritical phases), x2 = 0.9503	621.1
322.49 K, 18008 kPa, Fluid (supercritical or subcritical phases), x2 = 0.9503	800.3
322.49 K, 19008 kPa, Fluid (supercritical or subcritical phases), x2 = 0.9503	812.8
322.49 K, 20012 kPa, Fluid (supercritical or subcritical phases), x2 = 0.9503	824.3
322.49 K, 21007 kPa, Fluid (supercritical or subcritical phases), x2 = 0.9503	834.7
322.49 K, 21533 kPa, Fluid (supercritical or subcritical phases), x2 = 0.9503	839.7
322.49 K, 22009 kPa, Fluid (supercritical or subcritical phases), x2 = 0.9503	843.9
322.49 K, 22496 kPa, Fluid (supercritical or subcritical phases), x2 = 0.9503	848.2
322.49 K, 23500 kPa, Fluid (supercritical or subcritical phases), x2 = 0.9503	856.5
322.49 K, 24003 kPa, Fluid (supercritical or subcritical phases), x2 = 0.9503	860.4
